For one experiment, the system named is glucose resorption. Put plainly: resorption-inhibiting activity (oral glucose loading) in fasting guinea pigs. In kind it is in vivo. As to conditions: Cavia porcellus, PIG1, ip, guinea pig, 1 g glucose p.o., AUC difference vs control; for inhibition in vivo at 10 mg/kg: dose 10 mg/kg i.p.; for inhibition in vivo at 40 mg/kg: dose 40 mg/kg i.p.; for inhibition in vivo at 20 mg/kg: dose 20 mg/kg i.p. How it is done: (§1) To establish the pharmacological properties of the compounds in accordance with the invention, blood-sugar-lowering activity and resorption inhibition were determined in separate tests and compared with two structurally related compounds.
To determine the effect on glucose resorption, oral glucose loading was effected. To this end, the substance to be tested was administered intraperitoneally as potassium salt, as described, to a group of ten fasting guinea pigs. At the same time, 1 g glucose was orally administered to the animals as a 20% solution by means of an esophageal bougie.
After a preliminary value has been established, up to […] blood was taken from the animals at close (20-minute) intervals for determination of the glucose concentrations, as described.
A control group carried along in parallel also was given 1 g glucose p.o., and intraperitoneally a corresponding amount of 0.9% NaCl solution.
The blood-glucose concentration was determined in the hemolysate by the hexokinase method, as described.
With regard to glucose resorption, the area under the concentration/time curve, calculated by means of the empirical trapeze formula, served as quantity to be measured. The difference in the area between the control and test groups, expressed in percent, was used as a measure for the inhibition of glucose resorption.

In experiment [1] the test system is fasting glycemia (blood-glucose concentration). The experiment is described as follows: threshold dose of blood-sugar-lowering activity in fasting guinea pigs. It is filed as in vivo. As to conditions: Cavia porcellus, ip; guinea pig, i.p., potassium salt, pH 7.4; significant lowering of fasting glycemia (p<0.05), N=4 per dose group. The procedure:
as §1
Fasting guinea pigs were used as experimental model to determine the threshold dose of the blood-lowering activity of the substances to be investigated. Food was withheld from the individual animals used in the investigation for 16 hours prior to the start of the tests. The animals were kept unfed throughout the testing period but had free access to drinking water.
The substances were administered through intraperitoneal injection of a solution of the potassium salt at pH 7.4.
A control group carried along in parallel was given an 0.9% NaCl solution.
The drawing of blood for determination of the glucose concentrations was effected immediately prior to administration of the substances and at one-hour intervals up to the fourth hour after the administration of the substances. To this end, an ear vein was carefully punctured with a No. 18 cannula, and the drops of blood issuing were picked up with a 10 μl capillary.
The blood-glucose concentration was determined in the hemolysate by the specific hexokinase method. To this end, the 10 μl blood sample was pipetted into a stabilizer solution containing digitonin as hemolysis accelerator and maleinimide as glycolysis inhibitor. Following this, an aliquot was taken from the hemolysate so obtained and determined by the hexokinase method on an LKB 8600 (made by LKB, Bromma, Sweden).
The dose which with the specified number of test animals per dose group (N=4) was just large enough to produce a significant lowering of fasting glycemia (p<0.05) was adopted as threshold dose.

The inhibition in vivo is the relative decrease from the control value, in per cent. Read a high inhibition in vivo as strong suppression. The minimal effective dose is the lowest level tested that produced the effect sought. For `CC(=NNCCc1ccccc1)C(=O)O` [A, 2-(phenethylhydrazono)-propionic acid, reference compound], testing at 10 mg/kg in the experiment on glucose resorption gave an inhibition in vivo of 0%. For the same compound, in experiment [1], the minimal effective dose fell in the range of 10 to 15 mg/kg.

For `CC(=NNCCC1CCCCC1)C(=O)O` [B, 2-(2-cyclohexylethylhydrazono)-propionic acid, reference compound], the inhibition in vivo at 15 mg/kg in the experiment on glucose resorption (dose 15 mg/kg i.p.) is 0%. Further, the minimal effective dose in experiment [1] amounted to 15 mg/kg.

In turn, `CC(=NNCCOc1ccc(C)cc1)C(=O)O` [Example 1, 2-(2-p-Tolyloxyethylhydrazono)-propionic acid] came in with an inhibition in vivo at 40 mg/kg with glucose resorption of 25%. Also, the minimal effective dose in experiment [1] turned out to be 25 mg/kg.

With `CC(=NNCCOc1ccccc1)C(=O)O` [Example 1b, 2-(2-phenoxyethylhydrazono)-propionic acid], at 40 mg/kg the inhibition in vivo in the experiment on glucose resorption was 98%. In addition, in experiment [1], the minimal effective dose stood at 25 mg/kg.

Consider `COCCOCCNN=C(C)C(=O)[O-].[Na+]` [Example 2a, sodium 2-[2-(2-methoxyethoxy)-ethylhydrazono]-propionate], for which testing at 40 mg/kg in the experiment with glucose resorption gave an inhibition in vivo of 37%. Besides, the minimal effective dose in experiment [1] is more than 50 mg/kg.

For `CC(=NNCCOCc1ccccc1)C(=O)[O-].[Na+]` [Example 2b, sodium 2-(2-benzyloxyethylhydrazono)-propionate], in the experiment on glucose resorption, the inhibition in vivo at 40 mg/kg was 49.9%. Moreover, the minimal effective dose in experiment [1] is more than 50 mg/kg.

Consider `C=CCSCCNN=C(C)C(=O)[O-].[Na+]` [Example 2c, sodium 2-(2-allylthioethylhydrazono)-propionate], for which, in the experiment on glucose resorption, the inhibition in vivo at 10 mg/kg is 16%. In addition, the minimal effective dose in experiment [1] fell in the range of 10 to 25 mg/kg.

Turning to `CC(=NNCCSc1ccccc1)C(=O)[O-].[Na+]` [Example 2d, sodium 2-(2-phenylthioethylhydrazono)-propionate], the inhibition in vivo at 40 mg/kg in the experiment on glucose resorption came out at 33%. For the same compound, the minimal effective dose in experiment [1] lay within 25 to 50 mg/kg.

Consider `C=CCOCCNN=C(C)C(=O)O` [Example 3, 2-(2-Allyloxyethylhydrazono)-propionic acid], for which, in the experiment with glucose resorption, the inhibition in vivo at 20 mg/kg stood at 9%. For the same compound, the minimal effective dose in experiment [1] amounted to 25 mg/kg.

On to `COCCCCCCNN=C(C)C(=O)O` [Example 3a, 2-(6-methoxyhexylhydrazono)-propionic acid], for which, in the experiment with glucose resorption, the inhibition in vivo at 20 mg/kg was 11%. Further, the minimal effective dose in experiment [1] was 20 mg/kg.

On to `CCOCCCCCNN=C(C)C(=O)O` [Example 3b, 2-(5-ethoxypentylhydrazono)-propionic acid], for which, in the experiment with glucose resorption, the inhibition in vivo at 20 mg/kg came out at 34%. Besides, the minimal effective dose in experiment [1] fell in the range of 20 to 25 mg/kg.

On to `CC(=NNCCOCCC1CCCCC1)C(=O)O` [Example 3d, 2-[2-(2-cyclohexylethoxy)-ethylhydrazono]-propionic acid], for which the inhibition in vivo at 40 mg/kg in the experiment with glucose resorption was found to be 15%. The minimal effective dose in experiment [1] is more than 50 mg/kg.

Take `CC(=NNCCCOCc1ccccc1)C(=O)O` [Example 3e, 2-(3-benzyloxypropylhydrazono)-propionic acid]: testing at 40 mg/kg in the experiment with glucose resorption gave an inhibition in vivo of 44%. Moreover, the minimal effective dose in experiment [1] was more than 50 mg/kg.

In the experiment on glucose resorption, `COCCSCCNN=C(C)C(=O)O` [Example 3f, 2-[2-(2-methoxyethylthio)-ethylhydrazono]-propionic acid] returned an inhibition in vivo at 20 mg/kg of 17.3%. Moreover, the minimal effective dose in experiment [1] turned out to be 25 mg/kg.
